Laboratory results as given in US20260159536A1, “AKR1C3-ACTIVATED DNA ALKYLATING AGENT, AND MEDICAL APPLICATION THEREOF” (ASCENTAWITS PHARMACEUTICALS, LTD., priority 2021, published 2026).
Where two headings read alike, the source gives them in different places.

Experiments:
H460 cancer cells = assay: H460 proliferation in the presence or absence of AKR1C3 inhibitor AST-3021 (Alamar Blue); assay type: cell-based, human; conditions: for IC50: Homo sapiens, NCI-H460, H460, 2 hours exposure
Procedure: (§1) The tested compound was then added. The compound was dissolved in 100% DMSO at 200 times of the desired final test concentration. When the medicament was added, the compound was further diluted to 4 times of the desired final test concentration by using the complete medium. 50 μL of aliquots of the compound with specific concentration were added to the microwells containing 150 μL of medium, and then the final medicament concentration was obtained. […] The medicament was then washed. […] After the incubation was finished, the Alamar Blue was used to analyze and quantify the living cells.

NCI-H2110 = assay: AKR1C3-dependent cytotoxicity, NSCLC cell line NCI-H2110; assay type: cell-based
Procedure: as §1

[1] = tested on: HuPrime model GA6201 human gastric cancer; conditions: for Tumor volume: AST-3424 5 mg/kg i.v.
Procedure: The test was divided into groups of the test drug Isocyclophosphamide 60 mg/kg group, the test drug AST-3424 5 mg/kg group, the test drug A compound 2.5 mg/kg and 5 mg/kg groups, and normal saline (pH 7.0-7.6) vehicle control group, a total of 5 groups, with 5 mice per group.
In the above dosing regimen, Isocyclophosphamide was designed based on the best dosing regimen with maximum safe dosage as recited in the document (Jessica D. Sun, Qian Liu, Dharmendra Ahluwalia, Damien J. Ferraro, Yan Wang, Don Jung, Mark D. Matteucci, and Charles P. Hart. Comparison of hypoxia-activated prodrug evofosfamide (TH-302) and ifosfamide in preclinical non-small cell lung cancer models [J]. Cancer Biology & Therapy, 2016, 17(4): 371-380).

[2] = tested on: HuPrime model LI6664 human liver cancer; assay: In vivo pharmacodynamics, liver cancer LI6664 PDX model; set-up: species or system BALB/c nude mice; conditions: for Relative tumor volume (x ± S) / Tumor volume (x ± S): mean ± standard error; for Tumor volume (x ± S): in mm³ (unit assumed)
Procedure: Experiment Instruction: BALB/c nude mice were subcutaneously inoculated with HuPrime® model LI6664 tumor blocks to establish a subcutaneous transplantation tumor model of human liver cancer. […] Among them, 7.5% anhydrous ethanol+7.5% polyoxyethylene (35) castor oil+85% glucose injection D5W (pH 7.4) vehicle control group was administered by tail vein once a week for 3 consecutive weeks; test drug AST-3424 0.3 mg/kg and 1 mg/kg groups were administered by tail vein injection once a day for 5 consecutive days, followed by 2 days off, followed by 2 weeks off, and then continuously administered for 5 consecutive days; the test drug AST-3424 1.25 mg/kg group was administered by tail vein injection once a week for 2 consecutive weeks, followed by one week off, and then continuously administered for 2 consecutive weeks, Compound A 0.5 mg/kg, 1.5 mg/kg, and 4.5 mg/kg groups were administered by tail vein injection once a week for three consecutive weeks, followed by 1 week off, and then administered for three consecutive weeks. […] The efficacy was evaluated according to the relative tumor inhibition rate TGI (%), and the safety was evaluated according to the change in body weight and the death of the animals.

[3] = Liver microsome stability, rat; assay type: in vitro ADME; conditions: Rat liver microsomes; with the addition of NADPH
Procedure: 1) Two individual experiments were performed.
All experiments were performed in duplicate.

[4] = AST-3424 5 mg/kg i.v. QWx2, Day 38

C[C@@H](OP(=O)(N1CC1)N1CC1)c1ccc([N+](=O)[O-])c(Oc2cccc(C(=O)N(C)C)c2)c1 [AST-3424]
IC50 (H460 cancer cells; AST-3021 3 micromolar, read-out: IC50 With the addition of AST-3021): 44.9 nM
IC50 (H460 cancer cells; no AKR1C3 inhibitor, read-out: IC50 Without the addition of AST-3021): 0.349 nM
Fold (H460 cancer cells; IC50 with AST-3021 over IC50 without): 128.71
IC50 (NCI-H2110): 1.1 nM
Relative tumor volume (x ± S) [1, 4]: 0.11 ± 0.07
T/C (%) [1, 4]: 1.21%
TGI (%) [1, 4]: 98.79%
Tumor volume (x ± S) [1, 4]: 12.65 ± 7.91
Tumor volume ([1]; 0 day): 94.19 mm^3
Tumor volume ([1]; 3 days): 114.98 mm^3
Tumor volume ([1]; 7 days): 84.33 mm^3
Tumor volume ([1]; 10 days): 77.04 mm^3
Tumor volume ([1]; 14 days): 63.59 mm^3
Tumor volume ([1]; 17 days): 52.08 mm^3
Tumor volume ([1]; 21 days): 45.81 mm^3
Tumor volume ([1]; 24 days): 40.55 mm^3
Tumor volume ([1]; 28 days): 30.28 mm^3
Tumor volume ([1]; 31 days): 23.24 mm^3
Tumor volume ([1]; 35 days): 18.55 mm^3
Tumor volume ([1]; 38 days): 12.65 mm^3
Tumor volume ([1]; 42 days): 13.42 mm^3
Tumor volume ([1]; 45 days): 10.82 mm^3
Tumor volume ([1]; 49 days): 8.15 mm^3
body weight change / toxic effects ([1]; GA6201 model, tested doses): no toxic effects
relative tumor inhibition rate TGI (%) ([2]; 0.3 mg/kg i.v. QDx5, 2 days off, 2 weeks off, QDx5, Day 28): 45.85%
relative tumor inhibition rate TGI (%) ([2]; 1 mg/kg i.v. QDx5, 2 days off, 2 weeks off, QDx5, Day 28): 65.05%
relative tumor inhibition rate TGI (%) ([2]; 1.25 mg/kg i.v. QWx2, 1 week off, QWx2, Day 28): 52.42%
T/C (%) ([2]; AST-3424 0.3 mg/kg, Day 28): 54.15%
Relative tumor volume (x ± S) ([2]; AST-3424 0.3 mg/kg, Day 28): 6.99 ± 1.31
Tumor volume (x ± S) ([2]; AST-3424 0.3 mg/kg, Day 28): 746.71 ± 130.55
T/C (%) ([2]; AST-3424 1 mg/kg, Day 28): 34.95%
Relative tumor volume (x ± S) ([2]; AST-3424 1 mg/kg, Day 28): 4.51 ± 1.21
Tumor volume (x ± S) ([2]; AST-3424 1 mg/kg, Day 28): 463.09 ± 99.32
T/C (%) ([2]; AST-3424 1.25 mg/kg, Day 28): 47.58%
Relative tumor volume (x ± S) ([2]; AST-3424 1.25 mg/kg, Day 28): 6.14 ± 0.94
Tumor volume (x ± S) ([2]; AST-3424 1.25 mg/kg, Day 28): 687.95 ± 147.16
Size of tumor volume ([2]; Group3, AST-3424 0.3 mg/kg, Day 0): 108.20 mm^3
Size of tumor volume ([2]; Group3, AST-3424 0.3 mg/kg, Day 4): 162.32 mm^3
Size of tumor volume ([2]; Group3, AST-3424 0.3 mg/kg, Day 7): 177.51 mm^3
Size of tumor volume ([2]; Group3, AST-3424 0.3 mg/kg, Day 11): 208.59 mm^3
Size of tumor volume ([2]; Group3, AST-3424 0.3 mg/kg, Day 14): 306.95 mm^3
Size of tumor volume ([2]; Group3, AST-3424 0.3 mg/kg, Day 18): 391.40 mm^3
Size of tumor volume ([2]; Group3, AST-3424 0.3 mg/kg, Day 21): 499.34 mm^3
Size of tumor volume ([2]; Group3, AST-3424 0.3 mg/kg, Day 25): 631.08 mm^3
Size of tumor volume ([2]; Group3, AST-3424 0.3 mg/kg, Day 28): 746.71 mm^3
Size of tumor volume ([2]; Group3, AST-3424 0.3 mg/kg, Day 32): 958.09 mm^3
Size of tumor volume ([2]; Group3, AST-3424 0.3 mg/kg, Day 35): 1059.71 mm^3
Size of tumor volume ([2]; Group3, AST-3424 0.3 mg/kg, Day 39): 1226.51 mm^3
Size of tumor volume ([2]; Group3, AST-3424 0.3 mg/kg, Day 42): 1094.69 mm^3
Size of tumor volume ([2]; Group3, AST-3424 0.3 mg/kg, Day 46): 1268.82 mm^3
Size of tumor volume ([2]; Group3, AST-3424 0.3 mg/kg, Day 49): 1486.77 mm^3
Size of tumor volume ([2]; Group4, AST-3424 1 mg/kg, Day 0): 107.53 mm^3
Size of tumor volume ([2]; Group4, AST-3424 1 mg/kg, Day 4): 131.59 mm^3
Size of tumor volume ([2]; Group4, AST-3424 1 mg/kg, Day 7): 145.23 mm^3
Size of tumor volume ([2]; Group4, AST-3424 1 mg/kg, Day 11): 158.03 mm^3
Size of tumor volume ([2]; Group4, AST-3424 1 mg/kg, Day 14): 233.54 mm^3
Size of tumor volume ([2]; Group4, AST-3424 1 mg/kg, Day 18): 291.97 mm^3
Size of tumor volume ([2]; Group4, AST-3424 1 mg/kg, Day 21): 371.35 mm^3
Size of tumor volume ([2]; Group4, AST-3424 1 mg/kg, Day 25): 438.00 mm^3
Size of tumor volume ([2]; Group4, AST-3424 1 mg/kg, Day 28): 463.09 mm^3
Size of tumor volume ([2]; Group4, AST-3424 1 mg/kg, Day 32): 622.48 mm^3
Size of tumor volume ([2]; Group4, AST-3424 1 mg/kg, Day 35): 748.13 mm^3
Size of tumor volume ([2]; Group4, AST-3424 1 mg/kg, Day 39): 929.60 mm^3
Size of tumor volume ([2]; Group4, AST-3424 1 mg/kg, Day 42): 1226.79 mm^3
Size of tumor volume ([2]; Group4, AST-3424 1 mg/kg, Day 46): 1496.83 mm^3
Size of tumor volume ([2]; Group4, AST-3424 1 mg/kg, Day 49): 1717.60 mm^3
Size of tumor volume ([2]; Group5, AST-3424 1.25 mg/kg, Day 0): 108.46 mm^3
Size of tumor volume ([2]; Group5, AST-3424 1.25 mg/kg, Day 4): 174.65 mm^3
Size of tumor volume ([2]; Group5, AST-3424 1.25 mg/kg, Day 7): 210.25 mm^3
Size of tumor volume ([2]; Group5, AST-3424 1.25 mg/kg, Day 11): 222.97 mm^3
Size of tumor volume ([2]; Group5, AST-3424 1.25 mg/kg, Day 14): 291.02 mm^3
Size of tumor volume ([2]; Group5, AST-3424 1.25 mg/kg, Day 18): 361.03 mm^3
Size of tumor volume ([2]; Group5, AST-3424 1.25 mg/kg, Day 21): 467.94 mm^3
Size of tumor volume ([2]; Group5, AST-3424 1.25 mg/kg, Day 25): 581.63 mm^3
Size of tumor volume ([2]; Group5, AST-3424 1.25 mg/kg, Day 28): 687.95 mm^3
Size of tumor volume ([2]; Group5, AST-3424 1.25 mg/kg, Day 32): 746.71 mm^3
Size of tumor volume ([2]; Group5, AST-3424 1.25 mg/kg, Day 35): 871.84 mm^3
Size of tumor volume ([2]; Group5, AST-3424 1.25 mg/kg, Day 39): 1081.64 mm^3
Size of tumor volume ([2]; Group5, AST-3424 1.25 mg/kg, Day 42): 1307.36 mm^3
Size of tumor volume ([2]; Group5, AST-3424 1.25 mg/kg, Day 46): 1675.14 mm^3
Size of tumor volume ([2]; Group5, AST-3424 1.25 mg/kg, Day 49): 1923.31 mm^3
weight loss ([2]; mouse, in vivo): no weight loss
Percentage remaining after 30 minutes [3]: 8.79%
